Measured values from paper PMC8073907, “Peptide targeting of lysophosphatidylinositol-sensing GPR55 for osteoclastogenesis tuning” (Cell Communication and Signaling : CCS, 2021).

Tests used:
Format in all cases: cell-based, murine
[1] = tested on: osteoclasts derived from RAW264.7 cells; assay: Osteoclast functional assay (bone resorption on bovine cortical bone slices); conditions: 15 ng/mL RANKL, 7 days
Method: RAW264.7 cells were plated in differentiation medium at a density of 1250 cells/100 µL on 0.2-mm-thick bovine cortical bone slices (BoneSlices.com, Jelling, Denmark) in 96-well plates. Six hours later, 100 µL differentiation medium with RANKL (15 ng/mL, final concentration) was added, in the presence of a carrier or in combination with the GPR55 modulators. The media with the different compounds were replaced every 48 h, for a total of 7 days. At the end of this period, the cells were detached with a 10% bleach solution, and the resorption excavations were visualised by using Toluidine Blue staining (Sigma-Aldrich). Images of the resorption areas were obtained under the microscope (SW380T; Swift Optical Instruments, Inc., TX, USA) using the 10 × objective, and acquired with a digital camera (Swiftcam SC1003; Swift Optical Instruments, Inc.). The total eroded surface underwent blinded quantification using ImageJ (NIH), and was subdivided into pit and trench surfaces. Pits were characterised as round excavations with well-defined edges where the ratio between length and width was < 2.0. Trenches were defined as elongated excavations with well-defined edges whose length was at least twice the wide, and with clear signs of continued resorption. The prevalence of trenches was calculated as a proportion (%) of the trench surface relative to the total eroded surface.

RAW264.7 cells [2] = assay: Filopodium formation / actin morphology in siRNA-interfered RAW264.7 cells (confocal microscopy); conditions: 10 µM soybean LPI
Method: (§1) For transient interference of Gpr55, RAW264.7 cells were plated at 6 × 10^5 cells/well in six-well plates in growth medium without antibiotics. Twenty-four hours later, the cells were transfected with 250 pmol/well non-targeting small-interfering (si)RNAs (si-NT; siGENOME siRNA Pool #2; D-001206-14; Dharmacon, Chicago, IL, USA) or Gpr55-specific siRNAs (si-GPR55; siGENOME mouse GPR55 SMART pool; M-043590-01; Dharmacon) using Lipofectamine LTX and Plus Reagent, according to the manufacturer instructions. Twenty-four hours later, the cells were plated for the different assays or for RNA extraction. The efficiency of interference was monitored by real-time PCR after 72 h of interference, using the primers listed in the Additional file 1: Table S1. β2-microglobulin was followed as a housekeeping gene.
Twenty-four hours after plating the RAW264.7 cells at a density of 1.2 × 10^6 cells/well in six-well plates, or 2.5 × 10^5 cells/well in 24-well plates on coverslips, the cells were serum deprived for 2 h and then stimulated while adhered, with LPI in the assay buffer (0.1% faf-BSA, 20 mM HEPES in HBSS^++). […] Finally, the fixed cells were stained with 33 nM Alexa546-labelled phalloidin for 1 h at room temperature, washed three times (10 min each) with cytoskeleton buffer, suspended in PBS with 3% BSA, and analysed by FACS (FACSCalibur or FACSAria III; Becton Dickinson, Franklin Lakes, NJ). […]

[3] = tested on: Gpr55 mRNA in RAW264.7 cells; assay: Modulation of Gpr55 mRNA levels by receptor ligands in RANKL-treated RAW264.7 cells; conditions: 72 h; 0.5 μM ML-191, 0.5 μM CBD, 1 μM soybean LPI; versus RANKL alone
Method: Total RNA was extracted using RNeasy isolation kits, cDNAs were obtained using QuantiTect Reverse Transcription kits, and real-time PCRs were performed with QuantiTect SYBR Green PCR kits (all from Qiagen, Hilden, Germany), according to the manufacturer instructions. The primers used for the real-time PCRs and their annealing temperatures are listed in the Additional file 1: Table S1. Human hypoxanthine phosphoribosyltransferase 1 (HPRT1) or murine β2-microglobulin were followed as housekeeping genes. The real-time PCR programme consisted of an initial 15 min at 95 °C, and then 45 cycles as follows: 94 °C for 15 s, annealing temperature of each primer for 30 s, and 72 °C for 30 s. The real-time PCR machine used was a LightCycler 480 Instrument II (Roche, Indianapolis, IN, USA).
For the osteoclastogenesis in-vitro assay, RAW264.7 cells were plated in differentiation medium (α-MEM with 10% heat-inactivated FBS, 2 mM L-glutamine, 100 U/mL penicillin, and 100 ug/mL streptomycin) at a density of 5 × 10^3 cells/well in 24-well plates on coverslips for morphological analysis, or at 2 × 10^4 cells/well in six-well plates for RNA extraction. Twenty-four hours later and every 48 h, the medium was replaced and the cells were treated with 15–30 ng/mL RANKL with DMSO and/or PBS as carriers, or with GPR55 antagonists/ agonists (0.5 µM ML-191, 30 µM O1918, 0.5 µM CBD, 0.5 μM CID16020046 1 µM soybean LPI, 1 μM ML-184), or with the peptides (150 nM peptide-P1; or the irrelevant peptide, Irr_P). Twenty-four hours after the last addition, the cells were fixed with 4% paraformaldehyde for morphological analyses or harvested for RNA extraction (see above).

RAW264.7 cells [4] = assay: Filamentous actin (phalloidin) FACS analysis of RAW264.7 cells; conditions: 10 µM soybean LPI
Method: as §1
Twenty-four hours after plating the RAW264.7 cells at a density of 1.2 × 10^6 cells/well in six-well plates, or 2.5 × 10^5 cells/well in 24-well plates on coverslips, the cells were serum deprived for 2 h and then stimulated while adhered, with LPI in the assay buffer (0.1% faf-BSA, 20 mM HEPES in HBSS^++). Stimulation was blocked by two washes with HBSS^++, and cells on coverslips were processed for immunofluorescence (see below), while the cells in the six-well plates were scraped into cytoskeleton buffer (10 mM 4-morpholineethanesulfonic acid, 150 mM NaCl, 5 mM EGTA, 5 mM MgCl2, 5 mM glucose), for FACS analysis. For the latter, an equal volume of fixation solution (1% Triton X-100, 0.5% glutaraldehyde, in cytoskeleton buffer) was added to the cell suspension and left for 2 min at room temperature. […] Finally, the fixed cells were stained with 33 nM Alexa546-labelled phalloidin for 1 h at room temperature, washed three times (10 min each) with cytoskeleton buffer, suspended in PBS with 3% BSA, and analysed by FACS (FACSCalibur or FACSAria III; Becton Dickinson, Franklin Lakes, NJ).

## lysophosphatidylinositol [LPI]
[1]; 0.5 µM ML-191 or 1 µM 18:0 LPI
  effect on relative trench contribution: did not affect the relative contributions of the trenches
[1]; 1 µM 18:0 LPI, versus RANKL + 0.004% faf-BSA
  increase of total resorbing activity induced by RANKL: 54%
RAW264.7 cells [2]; si-GPR55 cells
  actin cytoskeleton reorganisation, si-GPR55: no significant signs of actin cytoskeleton reorganisation
RAW264.7 cells [2]; si-NT cells
  numbers of filopodia, si-NT: time-dependent increase in the numbers of filopodia
[3]
  further enhancement of RANKL-stimulated Gpr55 mRNA levels: 0.5 -fold
RAW264.7 cells [4]; si-GPR55 cells
  mean phalloidin fluorescence on LPI addition, si-GPR55: did not increase further on LPI addition
RAW264.7 cells [4]; si-NT cells
  mean phalloidin fluorescence, si-NT: significant increase in the mean phalloidin fluorescence
RAW264.7 cells [4]; wild-type RAW264.7, 15 min, sub-populations #1 and #2, at least five independent experiments
  maximal increase in phalloidin mean fluorescence: 20%
